Test results published in PubChem BioAssay (NCI).
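Method: 48-hour compound exposure of cells in 96-well plates, five concentrations, linear interpolation of endpoints. TGI marks complete inhibition of growth.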

How the values were obtained:
Test in all cases: NCI tumour cell line growth inhibition, 48 h
[1] = tested on: OVCAR-8 ovarian
[2] = tested on: XF 498 CNS
[3] = tested on: HOP-62 NSCLC
[4] = tested on: M19-MEL melanoma
[5] = tested on: SF-539 CNS
[6] = tested on: A549 NSCLC
[7] = tested on: HOP-18 NSCLC
[8] = tested on: HT29 colon
[9] = tested on: DLD-1 colon
[10] = tested on: HL-60(TB) leukemia
[11] = tested on: DMS 273 small cell lung
[12] = tested on: SK-MEL-5 melanoma
[13] = tested on: OVCAR-5 ovarian
[14] = tested on: SNB-19 CNS
[15] = tested on: HCT-116 colon
[16] = tested on: SF-268 CNS
[17] = tested on: HCC-2998 colon
[18] = tested on: DMS 114 small cell lung
[19] = tested on: HCT-15 colon
[20] = tested on: CAKI-1 renal
[21] = tested on: KM12 colon
[22] = tested on: COLO 205 colon
[23] = tested on: EKVX NSCLC
[24] = tested on: OVCAR-3 ovarian
[25] = tested on: 786-0 renal
[26] = tested on: OVCAR-4 ovarian
[27] = tested on: K-562 leukemia
[28] = tested on: UACC-257 melanoma
[29] = tested on: SK-MEL-28 melanoma
[30] = tested on: RPMI-8226 leukemia
[31] = tested on: SNB-75 CNS
[32] = tested on: LXFL 529 NSCLC
[33] = tested on: UACC-62 melanoma
[34] = tested on: MALME-3M melanoma
[35] = tested on: RXF 393 renal
[36] = tested on: MOLT-4 leukemia
[37] = tested on: KM20L2 colon
[38] = tested on: ACHN renal
[39] = tested on: SNB-78 CNS
[40] = tested on: IGROV1 ovarian
[41] = tested on: SN12C renal
[42] = tested on: UO-31 renal
[43] = tested on: TK-10 renal
[44] = tested on: SF-295 CNS
[45] = tested on: SW-620 colon
[46] = tested on: SK-OV-3 ovarian
[47] = tested on: M14 melanoma
[48] = tested on: NCI-H23 lung
[49] = tested on: NCI-H226 lung
[50] = tested on: NCI-H460 lung
[51] = tested on: NCI-H522 lung
[52] = tested on: SK-MEL-2 melanoma
[53] = tested on: CCRF-CEM leukemia
[54] = tested on: LOX IMVI melanoma
[55] = tested on: U251 CNS

Measured: TGI

COC(=O)/C(C#N)=C1\CCC(OC)N1 (stereo not given)
> 100 µM: [1] | [2] | [3] | [4] | [5] | [6] | [7] | [8] | [9] | [10] | [11] | [12] | [13] | [14] | [15] | [16] | [17] | [18] | [19] | [20] | [21] | [22] | [23] | [24] | [25] | [26] | [27] | [28] | [29] | [30] | [31] | [32] | [33] | [34] | [35] | [36] | [37] | [38] | [39] | [40] | [41] | [42] | [43] | [44] | [45] | [46] | [47] | [48] | [49] | [50] | [51] | [52] | [53] | [54] | [55]
